Values quoted from earlier work in patent publication EP2061448B1, “SUSTAINED RELEASE FORMULATION OF NALTREXONE” (Nalpropion Pharmaceuticals, Inc., priority 2006, dated 2007).
Like-named read-outs stand apart in the source and are kept apart here.

Tests used:
[1] = oral administration, immediate release form
[2] = initial 25 mg dose followed by 50 mg daily for 10 weeks
[3] = tested on: pharmacologic effects of 25 mg of intravenously administered heroin

| Compound | Tmax [1] | Moderate to severe nausea, patients [2] [%] | period of block of the pharmacologic effects of heroin ([3]; 50 mg of naltrexone hydrochloride, 25 mg of intravenously administered heroin) [hours] | duration of blockade ([3]; doubling the dose of naltrexone hydrochloride) [h] | duration of blockade ([3]; tripling the dose of naltrexone hydrochloride) |
| --- | --- | --- | --- | --- | --- |
| O=C1CC[C@@]2(O)[C@H]3Cc4ccc(O)c5c4[C@@]2(CCN3CC2CC2)[C@H]1O5 [naltrexone, 17-(cyclopropylmethyl)-4,5α-epoxy-3,14-dihydroxymorphinan-6-one] | approximately 1 hour | 15 | – | – | – |
| naltrexone hydrochloride | – | – | ≤ 24 | 48 | about 72 hours |
